# Tested on: experimental animal plasma
# Experiment: In-vitro Prothrombin Time (PT) Test
# Format: biochemical
# Conditions: for Prothrombin Time: coagulant ingredient 1 weight % in water, 0.05 mL sample + 0.1 mL plasma, 37° C., thromboplastin added, mean of 10 repeats
# Procedure: An In-vitro Prothrombin Time (PT) Test has been designed to test the coagulant efficacy (see Luz, L. et at., International Journal of Biological Macromolecules, 58 (2013), p. 31-36). […] The experimental methodology used was: […] When testing the “Toothpastes” in Table 2, below, a toothpaste slurry was prepared by mixing 1 part of the toothpaste under test with 2 parts DI water (all parts being parts by weight); then the supernatant was obtained by centrifuging the slurry for 20 mins at 8000 rpm. 0.1 mL of experimental animal plasma was placed in each testing tube (animal blood samples used in the experiment were waste products, and the animals were otherwise used for food). 0.05 mL of the test samples (0.05 mL of DI water or saline solution in control group) were added to separate tubes and mixed with the plasma. The mixtures were then heated in a water bath at 37° C. for 3 min, then 0.2 mL of thromboplastin (which had been preheated to 37° C.) was added to each testing tube and the contents mixed. A stopwatch was started immediately upon adding the thromboplastin to record the coagulation time (Prothrombin Time).
Compound,Prothrombin Time [s],clotting time compared with the controls (DI water and saline solution) (ingredient 1 weight % in water),difference in clotting time between tranexamic acid and 4-(aminomethyl) benzoic acid (ingredients 1 weight % in water)
NCc1ccc(C(=O)O)cc1 [4-(aminomethyl)benzoic acid],11.14,significantly lower clotting time than the controls,No significant difference
"NC[C@H]1CC[C@H](C(=O)O)CC1 [Tranexamic acid, tranexamic acid, reference compound]",11.66,–,–
